{"source": "patent JP2020514407A", "about": "“アポリポプロテイン模倣物を用いる加齢黄斑変性と他の眼疾患の治療” (MacRegen Inc, priority 2017, dated 2018)", "key": {"[1]": {"tested_on": "fellow non-injected eye [もう片方の非注射側の眼]", "assay": "Effect in the fellow non-injected eye (staining and thickness, figures 2 to 6), aged macaques", "assay_type": "in vivo, cynomolgus macaque (Macaca fascicularis)", "conditions": "after 6 monthly intravitreal injections (figures 2 to 6)"}, "[2]": {"tested_on": "complement factor D (CFD) [補体因子D(CFD)]", "assay": "Immunohistochemistry of complement factor D, aged macaques", "assay_type": "in vivo, cynomolgus macaque (Macaca fascicularis)", "conditions": "injected eye; 6 monthly intravitreal injections, total 625 μg; vs scrambled L-4F"}, "[3]": {"tested_on": "high-sensitivity C-reactive protein (hsCRP) [高感度C−反応性タンパク質(hsCRP)]", "assay": "Blood level of high-sensitivity C-reactive protein, aged macaques", "assay_type": "in vivo, cynomolgus macaque (Macaca fascicularis)", "conditions": "6 monthly intravitreal injections"}, "Bruch's membrane [ブルッフ膜]": {"tested_on": "Bruch's membrane [ブルッフ膜]", "assay": "Bruch's membrane thickness and integrity by electron microscopy, aged macaques", "assay_type": "in vivo, cynomolgus macaque (Macaca fascicularis)"}, "[4]": {"assay": "Tolerability and adverse events of intravitreal injection, aged macaques", "assay_type": "in vivo, cynomolgus macaque (Macaca fascicularis)", "conditions": "all macaques; 6 monthly intravitreal injections"}, "[5]": {"tested_on": "neutral lipid in and on Bruch's membrane [ブルッフ膜内及びブルッフ膜上の中性脂質]", "assay": "Oil red O (ORO) staining of neutral lipid in and on Bruch's membrane, aged macaques with naturally occurring age-related maculopathy", "assay_type": "in vivo, cynomolgus macaque (Macaca fascicularis)", "conditions": "injected eye; 6 monthly intravitreal injections, total 625 μg; after 6 months; vs scrambled L-4F"}, "[6]": {"tested_on": "membrane attack complex (MAC, C5b-9) [膜侵襲複合体(MAC、C5b−9)]", "assay": "Immunohistochemistry of membrane attack complex in Bruch's membrane and choriocapillaris, aged macaques", "assay_type": "in vivo, cynomolgus macaque (Macaca fascicularis)", "conditions": "injected eye; 6 monthly intravitreal injections, total 625 μg; vs scrambled L-4F"}, "[7]": {"tested_on": "esterified cholesterol in Bruch's membrane [ブルッフ膜内のエステル型コレステロール]", "assay": "Filipin fluorescence of esterified cholesterol in Bruch's membrane, aged macaques", "assay_type": "in vivo, cynomolgus macaque (Macaca fascicularis)", "conditions": "injected eye; 6 monthly intravitreal injections, total 625 μg; vs scrambled L-4F"}, "[8]": {"conditions": "estimated; cited from earlier work"}, "[9]": {"tested_on": "geographic atrophy [地図状萎縮]", "conditions": "10 mg intravitreal once a month, 18 months, cited from earlier work"}}, "data": [{"substance": "Ac−DWFKAFYDKVAEKFKEAF−NH2 (Ac-DWFKAFYDKVAEKFKEAF-NH2) [L−4F]", "values": [{"measurement": "effect on the fellow non-injected eye relative to the injected eye", "setting": "[1]", "result": "同様の効果を有していた"}, {"measurement": "reduction of complement factor D level compared with eyes injected with scrambled peptide", "setting": "[2]", "result": "~41", "unit": "%"}, {"measurement": "change in hsCRP blood level compared with the day before the first injection", "setting": "[3]", "result": "hsCRPの血中レベルを増加させなかった"}, {"measurement": "thickness of Bruch's membrane", "setting": "Bruch's membrane [ブルッフ膜]; L-4F-injected eye, temporal outer macula, post mortem, printed 1.31μm±SE0.11, placebo (scrambled L-4F) 1.73μm±SE0.02", "result": 1.31, "unit": "μm"}, {"measurement": "Bruch's membrane integrity", "setting": "Bruch's membrane [ブルッフ膜]; after removal of lipid deposits, confirmed by electron microscopy", "result": "BrMの完全性が回復し"}, {"measurement": "reduction of Bruch's membrane thickness compared with placebo-injected eyes", "setting": "Bruch's membrane [ブルッフ膜]; injected eye, temporal outer macula, vs scrambled L-4F", "result": "~24", "unit": "%"}, {"measurement": "tolerability", "setting": "[4]", "result": "十分耐性があり"}, {"measurement": "reduction of lipid deposits from Bruch's membrane (oil red O staining) compared with placebo-injected eyes", "setting": "[5]", "result": "~56", "unit": "%"}, {"measurement": "reduction of MAC (C5b-9) level in Bruch's membrane and choriocapillaris compared with eyes injected with scrambled peptide", "setting": "[6]", "result": "~58", "unit": "%"}, {"measurement": "reduction of esterified cholesterol in Bruch's membrane (filipin fluorescence, semiquantitative) compared with placebo-injected eyes", "setting": "[7]", "result": "~68", "unit": "%"}]}, {"substance": "アフリベルセプト: soluble fusion protein comprising extracellular domains of VEGFR", "values": [{"measurement": "intravitreal half-life", "setting": "[8]", "result": "~9.0", "unit": "days"}]}, {"substance": "ベバシズマブ: anti-VEGF antibody or fragment", "values": [{"measurement": "intravitreal half-life", "setting": "[8]", "result": "~9.8", "unit": "days"}]}, {"substance": "ラニビズマブ: anti-VEGF antibody or fragment", "values": [{"measurement": "intravitreal half-life", "setting": "[8]", "result": "~7.1", "unit": "days"}]}, {"substance": "ランパリズマブ: antigen-binding fragment (Fab) of a humanized monoclonal antibody targeting complement factor D", "values": [{"measurement": "reduction of geographic atrophy area, CFI biomarker-positive subgroup", "setting": "[9]; CFI biomarker-positive patients", "result": "~44", "unit": "%"}, {"measurement": "reduction of geographic atrophy area in the injected eye compared with placebo patients", "setting": "[9]; one eye", "result": "~20", "unit": "%"}]}]}
